Measurements as given in US20260083674A1, “OXAZOLIDINONE LIPOSOME COMPOSITIONS” (priority 2021, published 2026).
≈ marks a conversion by molar mass, not a printed value.

How the values were obtained:
[1] = system: M. tuberculosis Erdman or H37Rv vs VERO or HepG2 cell lines; assay: Selectivity Index (IC50 mammalian cells / MIC bacteria); set-up: species or system Mycobacterium tuberculosis; settings: for Selectivity Index (SI) Erd/VERO: IC50 VERO / MIC Erdman; for Selectivity Index (SI) Erd/HepG2: IC50 HepG2 / MIC Erdman; for Selectivity Index (SI) H37Rv/HepG2: IC50 HepG2 / MIC H37Rv; for Selectivity Index (SI) H37Rv/VERO: IC50 VERO / MIC H37Rv
[2] = Liposome loading: encapsulated drug-to-lipid ratio and encapsulation efficiency; format: physicochemical; settings: for Maximum encapsulated drug payload: 0.5 M AS
Method: 1. The lipid components (phospholipid (PhL), cholesterol, and optionally—a PEG-lipid derivative and/or a lipid fluorescent label were combined in an amount of 100% ethanol equal to one-tenth of a volume (V) calculated to obtain lipid suspension with about 60 mM phospholipid and stirred at the temperature of 65-68° C. until complete dissolution of the lipids.
2. The ethanolic lipid solution was combined with volume V of the trapping agent solution (0.25-0.5 M ammonium sulfate or 1 N triethylammonium sucrose octasulfate) upon stirring at 65-68° C. until a uniform suspension was obtained.
3. The lipid suspension was extruded at least three times through a stack of track-etched polycarbonate membranes, typically, two or four membranes with the nominal pore size of 100 nm and one with the nominal pore size 200 nm (Whatman Nuclepore, USA), using a thermobarrel extruder (Lipex, Canada) at 65-68° C., at the pressure of 400-450 psi. When two 100-nm membranes were used in a 100-ml Lipex extruder, the extrusion pressure was typically 260-300 psi. The resulting liposomes have Z-average particle size (diameter) Xz between about 80 and about 130 nm, and PDI less than 0.1.
5. An aliquot of the extruded, filtered liposome suspension so made was chromatographed on a gravity-fed Sepharose CL-4B size exclusion column (eluent-Type 1 water), to purify the liposomes from extraliposomal trapping agent. The purified liposomes were collected near the void volume fraction of the column. For a scale-up studies, this step was performed using a tangential flow filtration (TFF) on a hollow fiber cartridge (Repligen Spectrum MicroKros PS or mPES membrane with MWCO of 500 KDa) effecting 8-10 volume exchanges (or until the conductivity of the liposome suspension dropped below 200 μS/cm) with Type 1 or USP “Water for injection” endotoxin-free water.
6. The lipid concentration in a purified extruded liposome preparation was determined using HPLC with UV detection, by measuring the concentration of cholesterol and correcting for the known phospholipid/cholesterol molar ratio. Alternatively, a spectrophotometric blue phosphomolybdate method was used to directly quantify the phospholipid content.
7. The drug was dissolved in Type 1 or endotoxin-free pure water in the form of a hydrochloric acid salt (e.g., AKG-3 and AKG-5 were used as monohydrochloride, AKG-28 and AKG-29 were used as dihydrochloride) at the concentration of 5-20 mg/ml of the drug. To the drug prepared in free base form (e.g., AKG-16, AKG-38), an equivalent amount of HCl was added. If necessary, pH of the solution was brought between pH 2.5-5.5, using 1 N NaOH, HCL, or tris(hydroxymethyl)aminomethane (Tris)-base solution, and the solution was filtered through a 0.2-micron PES filter under positive pressure. When necessary, the drug concentration in the stock solution so made was verified by HPLC with UV detection at 305 nm.
8. Purified liposomes of step 5 and the drug stock solution were combined in the presence of an osmotic agent (typically dextrose) and water in the amounts necessary to provide a desired drug-to-phospholipid (DL) ratio, the drug concentration in the range 1.5-3.3 mg/ml, at the osmolality equal to the measured osmolality of the trapping agent solution of step 2. Optionally, a buffer at a desired pH (typically pH 4 to pH 7) was added. In some instances, the amount of added osmotic agent (e.g., dextrose at about 45 g/L) provided osmolality less that the measured osmolality of the trapping agent solution, and the loading was effected at 6-8 mg/ml of the drug.
9. The drug-liposome mixture was incubated with constant agitation at 65-68° C. for about 15-20 min and quickly chilled on ice. After 5-10 min, the mixture was allowed to reach ambient temperature an adjusted to 0.1M NaCl by adding a calculated amount of 3 M NaCl stock solution.
10. […] The liposome fractions were collected near the column void volume. […]

M.tb Erdman = assay: Broth microdilution MIC with Alamar blue endpoint (MABA), M.tb Erdman; format: cell-based, Mycobacterium tuberculosis; settings: for MIC: Mycobacterium tuberculosis, ERDMAN, broth microdilution, MABA/OD600
M.tb H37Rv = assay: Broth microdilution MIC with Alamar blue endpoint (MABA), M.tb H37Rv; format: cell-based; settings: Mycobacterium tuberculosis, broth microdilution, MABA/OD600, read-out: Mycobacterium tuberculosis MIC, H37Rv
[3] = system: African green monkey kidney (Vero; ATCC #CCL81) cells; assay: In vitro cytotoxicity (PrestoBlue cell viability), Vero cells; settings: Chlorocebus sabaeus, 72 h, read-out: Cell viability IC50, VERO
Method: (§1) Data is reported out as the full cell viability curve, as well as a calculation of the actual IC50 value for each compound.
(§2) Adherent cells were grown to ˜80% confluency. […] The cell density was determined using a hemocytometer.
(§3) These compounds were provided as sterile aqueous solutions of HCl salts with a concentration of 5 mg/ml. For making dilutions, each drug stock was warmed to room temperature, vortexed and was visually inspected for precipitation. If solid drug was present, the stock was heated on a 60° C. water bath and then allowed to cool to near room temperature. Based on the treatment concentrations, 20× working stocks were made by serial dilution.
(§4) At the end of the compound incubation period, replace the media in each well with 100 μl of 1× PrestoBlue Cell Viability Reagent (ThermoFisher Cat #A13261). Incubate the plate at 37° C. in a humidified incubator with 5% CO2 30 min to 2 h. […] Read fluorescence with 560 nm excitation and 590 nm emission using SpectraMax M5 plate reader (Molecular Devices). Correct background by subtracting the RFU of the control containing only the culture medium (background control well) from all sample readings. Calculate the percentage of cytotoxicity using the formula below:
(§5) The IC50 was determined using GraphPad Prism using the following formula:

[4] = system: human hepatocyte/liver (HepG2; ATCC #HB8065) cells; assay: In vitro cytotoxicity (PrestoBlue cell viability), HepG2 cells; settings: HepG2, 72 h, read-out: Cell viability IC50, HepG2
Method: as §1, §2, §3, §4, §5

[5] = format: physicochemical
Method: To the resulting cake or syrup, water was added typically to the final 10 mg/ml, and complete dissolution was observed. […] Aqueous solubility of the compounds of the present disclosure is illustrated by the following observations of obtaining visually clear solutions: […]

[6] = system: mitochondrial protein synthesis vs H37Rv M. tuberculosis; assay: MPS selectivity index (MPS IC50 / MIC H37Rv)
[7] = 1 N TEA-SOS, DL0 750-1500 g/mol PhL

SMILES | Selectivity Index (SI) Erd/VERO [1] | MIC (M.tb Erdman) | MIC (M.tb H37Rv) | Selectivity Index (SI) Erd/HepG2 [1] | Selectivity Index (SI) H37Rv/HepG2 [1] | Selectivity Index (SI) H37Rv/VERO [1] | IC50 [3] | IC50 [4] | other results
CN(C)CCCC(=O)OC[C@H]1CN(c2ccc(-c3ccc(-c4nnn(C)n4)nc3)c(F)c2)C(=O)O1 [AKG-5] | 32.5 | – | – | – | – | – | – | – | Maximum encapsulated drug payload ([2]; 0.5 mol % PEG): 627 g/mol PhL; Drug loading efficiency ([2]; 0.5 mol % PEG-DSG, 1N TEA-SOS, DL0 500 g/mol PhL (Example 8, no added buffer)): 101.3; Drug loading efficiency ([2]; 0.5 mol % PEG-DSG, […] AS, DL0 250 g/mol PhL): 98.5; Drug loading efficiency ([2]; 0.5 mol % PEG-DSG, […] AS, DL0 500 g/mol PhL): 97.7; loading efficiency at or near the maximum drug load [2, 7]: ≥ 96.0%; maximum drug load [2, 7]: 982-1197 g/mol PhL; Drug loading efficiency ([2]; 5 mol % PEG-DSG, 1N TEA-SOS, DL0 500 g/mol PhL): 99.3
CCN(CC)CCNC[C@H]1CN(c2ccc(-c3ccc(-c4nnn(C)n4)nc3)c(F)c2)C(=O)O1 [AKG-9] | <17.4 | > 8 µg/mL | > 8 µg/mL | <3.5 | 3.5 | <17.4 | 139 µg/mL (≈ 297 µM) | 28.1 µg/mL (≈ 60 µM) | –
CN(C)CCn1nnc(-c2ccc(-c3ccc(N4C[C@H](CO)OC4=O)cc3F)cn2)n1 [AKG-16] | – | – | – | – | – | – | – | – | Concentration % (w/w) of free base, visually clear solution [5]: 30.0 % (w/w); Maximum encapsulated drug payload ([2]; 0.5 mol % PEG): 668-675 g/mol PhL; Maximum encapsulated drug payload ([2]; 5 mol % PEG): 614-619 g/mol PhL; maximum drug load [2, 7]: 938-951 g/mol PhL
Cl.Cn1nnc(-c2ccc(-c3ccc(N4C[C@H](CNCCN)OC4=O)cc3F)cn2)n1 [AKG-19] | >31.3 | > 8 µg/mL | > 8 µg/mL | 5.3 | 5.3 | >31.3 | > 250 µg/mL | 42.2 µg/mL | –
CCN(CC)CCn1nnc(-c2ccc(-c3ccc(N4C[C@H](CNC(C)=O)OC4=O)cc3F)cn2)n1 [AKG-39] | – | – | – | – | – | – | – | – | MIC, M. tuberculosis (Example 2) (M.tb Erdman; strain not given): 0.5 µg/mL (≈ 1.01 µM); SI-MPS MPS/H37 [6]: 0.12
CCN(CC)CCCn1nnc(-c2ccc(-c3ccc(N4C[C@H](CN)OC4=O)cc3F)cn2)n1.Cl [AKG-31] | – | 0.5 µg/mL | 0.5 µg/mL | – | 26.4 | 223.0 | 112 µg/mL | 13.2 µg/mL | –
CCN(CC)CCCn1nnc(-c2ccc(-c3ccc(N4C[C@H](CNC(C)=O)OC4=O)cc3F)cn2)n1 [AKG-40] | – | – | – | – | – | – | – | – | SI-MPS MPS/H37 [6]: 0.13
CN(C)CCn1nnc(-c2ccc(-c3ccc(N4C[C@H](CN)OC4=O)cc3F)cn2)n1 [AKG-28] | – | – | – | – | – | – | – | – | Concentration % (w/w) of free base, visually clear solution [5]: 7.3 % (w/w)
Cl.Cn1nnc(-c2ccc(-c3ccc(N4C[C@H](CNC(=O)CCCN)OC4=O)cc3F)cn2)n1 [AKG-18] | >125 | 2 µg/mL | 2 µg/mL | 4.8 | 4.8 | >125 | > 250 µg/mL | 9.5 µg/mL | –
CN(C)CCNc1ccc(-c2ccc(N3C[C@H](CO)OC3=O)cc2F)cn1 [AKG-12] | 22.3 | 4 µg/mL (≈ 10.7 µM) | 4 µg/mL (≈ 10.7 µM) | 16.9 | 16.9 | 22.3 | 89.1 µg/mL (≈ 238 µM) | 67.6 µg/mL (≈ 181 µM) | –
Cl.Cn1nnc(-c2ccc(-c3ccc(N4C[C@H](CNC(=O)CCN)OC4=O)cc3F)cn2)n1 [AKG-17] | >125 | 2 µg/mL | 2 µg/mL | 18.7 | 18.7 | >125 | – | 37.3 µg/mL | –
Cl.NCCn1nnnc1-c1ccc(-c2ccc(N3C[C@H](CO)OC3=O)cc2F)cn1 [AKG-22] | – | – | – | – | – | – | – | – | SI-MPS MPS/H37 [6]: 2.37
CCN(CC)CCCNC[C@H]1CN(c2ccc(-c3ccc(-c4nnn(C)n4)nc3)c(F)c2)C(=O)O1 [AKG-8] | – | > 8 µg/mL | > 8 µg/mL | – | – | – | – | – | –
